{
  "source": "patent US20250134835A1",
  "about": "“COMPOSITIONS AND METHODS FOR TREATING PATIENTS WITH AMYOTROPHIC LATERAL SCLEROSIS (ALS)” (CuraSen Therapeutics, Inc., priority 2022, published 2025)",
  "key": {"healthy subjects [1]": {"test_system": "healthy subjects", "experiment": "Cerebral perfusion by ASL MRI after single dose of clenbuterol (Example 3)", "conditions": "for cerebral blood flow measured by MRI-ASL: healthy volunteers, single dose (FIG. 2)"}, "healthy subjects [2]": {"test_system": "healthy subjects", "experiment": "Visual verbal learning test (VVLT)", "format": "in vivo, human", "conditions": "single dose; crossover study", "protocol": "Subjects are presented 30 words on a screen, one at a time, for 1 second with a 1-second interval between words over a total of 1 minute. This is repeated in 3 trials. After each trial, subjects are asked to recall as many words as they can. After the third trial, there is a delay of 2.5 hours and subjects are then tested once for delayed recall. […] Since this was a crossover study, everyone who completed Part A was dosed with the 3 agents plus placebo."}, "[3]": {"test_system": "healthy volunteers and patients", "experiment": "Cerebral blood flow after single dose of Compound 03-5", "format": "in vivo, human", "conditions": "single dose of Compound 03-5 in the absence or presence of 3 mg nadolol", "text": "Data are plotted as mean (±SEM) percent change in cerebral blood flow from baseline in brain regions of interest for movement (the precentral gyrus) and mood, anhedonia and cognition (hippocampus, thalamus, amygdala)."}, "healthy volunteers [4]": {"test_system": "healthy volunteers", "experiment": "Heart rate (triplicate ECG) after Compound 03-5 with or without nadolol", "format": "in vivo, human", "protocol": "(§1) Healthy volunteers were enrolled into 2 cohorts in a study to undertake within-subject dose titration of Compound 03-5 and/or nadolol in order to explore doses/dose combinations that mitigate peripheral effects of Compound 03-5, e.g. on heart rate, while preserving possible central effects of Compound 03-5 on cerebral perfusion and pupillary light reflex.\n(§2) Eight healthy subjects aged 18-50 years were enrolled into Cohort D1 and received escalating doses of Compound 03-5 (3-12 mg) administered once daily 2 hours follow pre-administration of nadolol (1-40 mg). On all dosing days, study drug(s) were administered orally after an overnight fast of at least 8 hours.\n(§3) In Cohort D2, 8 healthy volunteers aged 55-75 years were admitted on Day −1 for a 5-day confinement period at the research facility. During this confinement, subjects received escalating doses of open label Compound 03-5 (1-10 mg) once-daily from Day 1 through Day 3 2 hours after pre-administration of open-label nadolol (3 mg) one each for the 3 dosing days according to the schematic in FIG. 17. Subjects remained in-residency until all study procedures are completed on Day 4."}, "healthy volunteers [5]": {"test_system": "healthy volunteers", "experiment": "Blood potassium, glucose and other peripheral effects after Compound 03-5 with or without nadolol", "format": "in vivo, human", "protocol": "as §1, §2, §3"}, "healthy volunteers [6]": {"test_system": "healthy volunteers", "experiment": "CANTAB cognition battery, Cohort D2", "format": "in vivo, human", "conditions": "Compound 03-5 1, 3 and 10 mg on Days 1, 2, 3 in the presence of 3 mg nadolol", "protocol": "as §3\nCompound 03-5 dose administration. Compound 03-5 was administered as escalating doses on Day 1 (1 mg), Day 2 (3 mg) and Day 3 (10 mg). CANTAB was conducted twice in all subjects on the day prior to start of dosing (Day −1) to familiarize subjects with the platform, and prior to dosing and approximately 3 hours after Compound 03-5 administration on Days 1, 2, and 3."}, "patients [7]": {"test_system": "patients", "experiment": "Peripheral effects of clenbuterol with or without nadolol (heart rate, potassium, glucose)"}, "patients [8]": {"test_system": "patients", "experiment": "Cerebral blood flow by brain imaging after single dose (Example 1)", "format": "in vivo, human"}, "[9]": {"test_system": "patients with neurodegenerative disorders", "experiment": "Facial Expression Recognition Task (FERT), crossover study", "format": "in vivo, human", "conditions": "clenbuterol co-administered with low-dose nadolol vs placebo", "text": "The Facial Expression Recognition Task (FERT) assesses the recognition of facial emotions. […] Different intensity levels of each emotion are presented, which increases the ambiguity of the facial expression and the sensitivity of the task."}, "healthy subjects [10]": {"test_system": "healthy subjects", "experiment": "Adaptive tracking test", "format": "in vivo, human", "conditions": "single dose 160 μg clenbuterol", "text": "Adaptive tracking measures visuomotor coordination and vigilance. In this test, the subject uses a joystick to move a small dot so that it stays within a continuously moving circle on a computer screen (Boland 1984). During the test, the speed of the circle is adjusted in response to the subject's ability to keep the dot in the circle, ensuring that the test is adapted to the individual subject. […] The improvement shown by subjects is in the same range as that seen with subjects treated with the acetylcholinesterase inhibitor donepezil, which is in clinical use for the treatment of mild to moderate AD (Groeneveld 2016)."}, "[11]": {"test_system": "patients with neurodegenerative disorders", "format": "in vivo, human", "conditions": "80 μg clenbuterol and 1 mg nadolol once daily for 14 days vs placebo"}, "[12]": {"conditions": "monotherapy with Compound 03-5 (0.3-6 mg)"}, "[13]": {"conditions": "80 µg clenbuterol on its own, single dose"}},
  "note": "Entries after “also recorded” stand apart in the source; their conditions may differ.",
  "data": [
    {"compound": "CC(C)NCC(O)COc1cccc2[nH]ccc12", "note": "(centres unmarked) [pindolol]", "values": [
      {"measurement": "cerebral blood flow measured by MRI-ASL", "setting": "healthy subjects [1]", "result": "lack of increase in cerebral blood flow"},
      {"measurement": "effect on VVLT (number of words recalled correctly)", "setting": "healthy subjects [2]", "result": "detrimental effect"}
    ]},
    {"compound": "CC(C)(C)NC[C@H](O)c1cccc(C#N)n1", "note": "[Compound 03-5, (S)-6-(2-(tert-butylamino)-1-hydroxyethyl)picolinonitrile]", "values": [
      {"measurement": "cerebral blood flow from baseline (precentral gyrus, hippocampus, thalamus, amygdala)", "setting": "[3]", "result": "robust, global increases in cerebral blood flow"},
      {"measurement": "mean maximum increase in heart rate", "setting": "healthy volunteers [4]; Compound 03-5 with pre-administration of 1 mg nadolol", "result": 7, "unit": "beats per minute"},
      {"measurement": "heart rate change from baseline", "setting": "healthy volunteers [4]; [12]", "result": "dose-dependent increases in heart rate"},
      {"measurement": "blood potassium concentrations", "setting": "healthy volunteers [5]; [12]", "result": "dose-dependent decreases in blood potassium concentrations"},
      {"measurement": "cognition (CANTAB), change from within-day pre-dose assessment", "setting": "healthy volunteers [6]", "result": "improvements in performance in the CANTAB cognition battery"}
    ]},
    {"compound": "CC(C)(C)NCC(O)c1ccc(O)c(CO)c1", "note": "(centres unmarked) [salbutamol]", "values": [
      {"measurement": "effect on VVLT (number of words recalled correctly)", "setting": "healthy subjects [2]", "result": "improvements in cognition; also recorded: positive effects"}
    ]},
    {"compound": "CC(C)(C)NCC(O)c1cc(Cl)c(N)c(Cl)c1", "note": "(centres unmarked) [clenbuterol]", "values": [
      {"measurement": "cerebral perfusion", "setting": "healthy subjects [1]; 160 μg clenbuterol, hippocampus, thalamus, amygdala, cortex, precentral gyrus", "result": "robust global increase in cerebral perfusion"},
      {"measurement": "cerebral perfusion as measured by CBF", "setting": "healthy subjects [1]; clenbuterol 40 μg", "result": "minimal increase"},
      {"measurement": "cerebral perfusion as measured by CBF", "setting": "healthy subjects [1]; clenbuterol doses below 30 μg", "result": "do not produce significant cerebral perfusion increases"},
      {"measurement": "cerebral blood flow measured by MRI-ASL", "setting": "healthy subjects [1]", "result": "increases in cerebral blood flow"},
      {"measurement": "glucose in the blood, change from baseline", "setting": "patients [7]; [13]", "result": "increases in glucose in the blood"},
      {"measurement": "potassium in the blood, change from baseline", "setting": "patients [7]; [13]", "result": "decreases in potassium in the blood"},
      {"measurement": "heart rate change from baseline", "setting": "patients [7]; 80 g clenbuterol on its own, single dose", "result": "increases in heart rate"},
      {"measurement": "increases in heart rate", "setting": "patients [7]; over the 4 hours after dosing clenbuterol+nadolol (1 mg)", "result": "4.0-6.8 bpm"},
      {"measurement": "cerebral blood flow (CBF) relative to the baseline", "setting": "patients [8]; single dose clenbuterol 160 μg", "result": "global increases in cerebral blood flow; also recorded: robust global increase in cerebral blood flow; also recorded: robust, global increase in cerebral blood flow"},
      {"measurement": "cerebral blood flow (CBF) relative to the baseline", "setting": "patients [8]; single dose clenbuterol 160 μg and nadolol 5 mg", "result": "global increases in cerebral blood flow; also recorded: robust global increase in cerebral blood flow"},
      {"measurement": "cerebral blood flow from the baseline", "setting": "patients [8]; single dose clenbuterol 30 to 160 μg and/or nadolol 5 mg, tracked 3 days", "result": "robust global increase in cerebral blood flow"},
      {"measurement": "cerebral blood flow (CBF) relative to the baseline", "setting": "patients [8]; single dose clenbuterol ranging from 20 to 160 μg, tracked 3 days", "result": "robust global increase in cerebral blood flow"},
      {"measurement": "effect on VVLT (number of words recalled correctly)", "setting": "healthy subjects [2]", "result": "improvements in cognition; also recorded: positive effects"},
      {"measurement": "accuracy of correctly identifying happy facial expressions (FERT)", "setting": "[9]", "result": "statistically significant increase in the accuracy"},
      {"measurement": "performance in adaptive tracking (percent time dot kept within moving circle)", "setting": "healthy subjects [10]", "result": "improved performance in the adaptive tracking task; also recorded: improves cognition; also recorded: performance in adaptive tracking improves"},
      {"measurement": "number of words correctly recalled, immediate verbal recall", "setting": "[11]", "result": "statistically significant increase in the number of words correctly recalled"}
    ]},
    {"compound": "CC(C)(C)NCC(O)COc1cccc2c1CC(O)C(O)C2", "note": "(centres unmarked) [nadolol]", "values": [
      {"measurement": "effect of nadolol on peripheral effects of Compound 03-5 (heart rate, glucose, potassium)", "setting": "healthy volunteers [4]; 3 mg nadolol pre-administered, Cohort D2, Compound 03-5 1-10 mg", "result": "inhibited; also recorded: similarly blocked"},
      {"measurement": "effect of nadolol on peripheral effects of Compound 03-5 (heart rate, glucose, potassium, tachycardia, tremor, palpitations)", "setting": "healthy volunteers [4]; Cohort D1, nadolol 1 mg up to 40 mg, Compound 03-5 3-12 mg", "result": "blocked"},
      {"measurement": "effect of nadolol on heart rate increase and other peripheral effects of Compound 03-5", "setting": "healthy volunteers [4]; pre-administration of 1 mg nadolol, Compound 03-5 up to 6 mg orally", "result": "substantially attenuated"},
      {"measurement": "effect of nadolol on Compound 03-5 induced decrease in blood potassium", "setting": "healthy volunteers [5]; 3 mg nadolol, cohort D2", "result": "inhibited"},
      {"measurement": "effect of nadolol on effects of Compound 03-5 on blood glucose and potassium, tachycardia, tremor and palpitations", "setting": "healthy volunteers [5]; pre-administration of 1 mg nadolol", "result": "Concomitant attenuation"}
    ]}
  ]
}
